From patent US9315490B2, “2,5-substituted pyrimidines” (Grünenthal GmbH, priority 2014, dated 2016) come the findings set out here.

The target of the first experiment is T1, human PDE4B1 (Homo sapiens, UniProt Q07343).
T1 construct: host or cells: Sf9 cells
T1 sequence (Q07343 whole entry): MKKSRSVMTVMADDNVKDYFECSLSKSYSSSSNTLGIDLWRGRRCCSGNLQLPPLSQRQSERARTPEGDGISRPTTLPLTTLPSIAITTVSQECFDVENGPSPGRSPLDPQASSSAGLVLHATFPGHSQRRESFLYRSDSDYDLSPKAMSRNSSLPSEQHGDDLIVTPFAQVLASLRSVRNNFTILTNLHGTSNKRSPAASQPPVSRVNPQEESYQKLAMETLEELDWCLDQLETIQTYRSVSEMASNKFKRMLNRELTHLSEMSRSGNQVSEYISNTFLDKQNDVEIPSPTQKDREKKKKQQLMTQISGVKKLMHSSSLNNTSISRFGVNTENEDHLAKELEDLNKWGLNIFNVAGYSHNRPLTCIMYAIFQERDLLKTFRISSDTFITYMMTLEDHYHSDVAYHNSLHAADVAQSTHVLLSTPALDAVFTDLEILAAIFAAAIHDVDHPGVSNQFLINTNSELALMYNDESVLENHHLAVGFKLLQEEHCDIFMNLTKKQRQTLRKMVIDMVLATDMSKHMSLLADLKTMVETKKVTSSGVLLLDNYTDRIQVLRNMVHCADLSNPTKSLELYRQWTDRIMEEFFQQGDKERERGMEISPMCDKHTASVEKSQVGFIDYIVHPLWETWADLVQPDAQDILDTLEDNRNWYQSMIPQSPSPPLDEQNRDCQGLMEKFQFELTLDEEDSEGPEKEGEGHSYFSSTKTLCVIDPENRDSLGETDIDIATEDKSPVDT
The experiment can be described thus: cAMP HTRF assay to determine the activity of hPDE4B1. Conditions: inhibition of PDE4B at a test concentration of 1 μM. Format: biochemical. An outline of the steps: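 […], using HTRF quantitation of residual cAMP after 1 mM IBMX stop and 60 min detection. Enzyme was Sf9-expressed human PDE4B1 incubated 30 min at room temperature with 40 nM final cAMP at pH 7.8.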
A general note: In TR-FRET formats the signal depends on donor and acceptor labels being close together.
Take `C[S+]([O-])c1cn(-c2ncc(-c3ccccc3F)cn2)c2cc(C(=O)N3CC[C@H](O)C3)ccc12` (stereo partly drawn) [Example 67, (1-(5-(2-Fluorophenyl)pyrimidin-2-yl)-3-(methylsulfinyl)-1H-indol-6-yl)((S)-3-hydroxypyrrolidin-1-yl)methanone]: the inhibition at 1 µM was 47%.
On to `C[S+]([O-])c1cn(-c2ncc(-c3ccccc3F)cn2)c2cc(C(=O)N3CC[C@@H](N)C3)ccc12` (stereo partly shown) [Example 68], for which the inhibition at 1 µM is 108%.
The same measure, in the same setting: under `CS(=O)(=O)c1cn(-c2ncc(-c3ccccc3F)cn2)c2cc(C(=O)N3CC[C@@H](N)C3)ccc12` [Example 69, (R)-(3-Aminopyrrolidin-1-yl)(1-(5-(2-fluorophenyl)pyrimidin-2-yl)-3-(methylsulfonyl)-1H-indol-6-yl)methanone] stands 95%; under `C[S+]([O-])c1cn(-c2ncc(-c3ccccc3)cn2)c2cc(C(=O)N3CCNC(=O)C3)ccc12` (stereo not shown) [Example 70, 4-(3-(Methylsulfinyl)-1-(5-phenylpyrimidin-2-yl)-1H-indole-6-carbonyl)piperazin-2-one], 84%.
Still for that read-out and setting: under `COC[C@@H]1CCCN1C(=O)c1ccc2c([S+](C)[O-])cn(-c3ncc(-c4ccccc4F)cn3)c2c1` (stereo partly shown) [Example 71] stands 63%; under `C[S+]([O-])c1cn(-c2ncc(-c3ccccc3F)cn2)c2cc(C(=O)N3CCC(O)CC3)ccc12` (stereo not shown) [Example 73, (1-(5-(2-Fluorophenyl)pyrimidin-2-yl)-3-(methylsulfinyl)-1H-indol-6-yl)(4-hydroxypiperidin-1-yl)methanone], 78%.
As for `C[S+]([O-])c1cn(-c2ncc(-c3ccccc3F)cn2)c2cc(C(=O)NC3COC3)ccc12` (stereo not shown) [Example 75, 1-(5-(2-Fluorophenyl)pyrimidin-2-yl)-3-(methylsulfinyl)-N-(oxetan-3-yl)-1H-indole-6-carboxamide], the inhibition at 1 µM came to 47%.
As to `CN1CCN(C(=O)c2ccc3c([S+](C)[O-])cn(-c4ncc(-c5ccccc5F)cn4)c3c2)CC1=O` (stereo not shown) [Example 76, 4-(1-(5-(2-Fluorophenyl)pyrimidin-2-yl)-3-(methylsulfinyl)-1H-indole-6-carbonyl)-1-methylpiperazin-2-one], the inhibition at 1 µM is 58%.
Same read-out and setting: under `COC[C@H]1CCCN1C(=O)c1ccc2c([S+](C)[O-])cn(-c3ncc(-c4ccccc4F)cn3)c2c1` (stereo partly drawn) [Example 77, (1-(5-(2-Fluorophenyl)pyrimidin-2-yl)-3-(methylsulfinyl)-1H-indol-6-yl)((R)-2-(methoxymethyl)pyrrolidin-1-yl)methanone] stands 67%; under `C[S+]([O-])c1cn(-c2ncc(-c3ccccc3F)cn2)c2cc(C(=O)N3CCC[C@@H]3CO)ccc12` (stereo partly drawn) [Example 78, (1-(5-(2-Fluorophenyl)pyrimidin-2-yl)-3-(methylsulfinyl)-1H-indol-6-yl)((R)-2-(hydroxymethyl)pyrrolidin-1-yl)methanone], 70%; under `C[S+]([O-])c1cn(-c2ncc(-c3ccccc3F)cn2)c2cc(C(=O)N3CCC[C@H]3CO)ccc12` (stereo partly drawn) [Example 79, (1-(5-(2-Fluorophenyl)pyrimidin-2-yl)-3-(methylsulfinyl)-1H-indol-6-yl)((S)-2-(hydroxymethyl)pyrrolidin-1-yl)methanone], 103%.
The same measure, in the same setting: the result for `C[S+]([O-])c1cn(-c2ncc(-c3ccccc3F)cn2)c2cc(C(=O)N3CCC[C@@H](O)C3)ccc12` (stereo partly drawn) [Example 80, (1-(5-(2-Fluorophenyl)pyrimidin-2-yl)-3-(methylsulfinyl)-1H-indol-6-yl)((R)-3-hydroxypiperidin-1-yl)methanone] reads 96%.
Take `C[S+]([O-])c1cn(-c2ncc(-c3ccccc3F)cn2)c2cc(C(=O)N3CCC[C@H](O)C3)ccc12` (stereo partly drawn) [Example 81, (1-(5-(2-Fluorophenyl)pyrimidin-2-yl)-3-(methylsulfinyl)-1H-indol-6-yl)((S)-3-hydroxypiperidin-1-yl)methanone]: the inhibition at 1 µM was found to be 63%.
In the case of `CO[C@@H]1CCN(C(=O)c2ccc3c([S+](C)[O-])cn(-c4ncc(-c5ccccc5F)cn4)c3c2)C1` (stereo partly drawn) [Example 82, (1-(5-(2-Fluorophenyl)pyrimidin-2-yl)-3-(methylsulfinyl)-1H-indol-6-yl)((R)-3-methoxypyrrolidin-1-yl)methanone], the inhibition at 1 µM is 71%.
Consider `C[S+]([O-])c1cn(-c2ncc(-c3ccccc3F)cn2)c2cc(C(=O)NCC3COC3)ccc12` (stereo not shown) [Example 83, 1-(5-(2-Fluorophenyl)pyrimidin-2-yl)-3-(methylsulfinyl)-N-(oxetan-3-ylmethyl)-1H-indole-6-carboxamide], for which the inhibition at 1 µM is 67%.
Still for that read-out and setting: the result for `C[C@@H]1CN(C(=O)c2ccc3c([S+](C)[O-])cn(-c4ncc(-c5ccccc5F)cn4)c3c2)CCO1` (stereo partly drawn) [Example 84, (1-(5-(2-Fluorophenyl)pyrimidin-2-yl)-3-(methylsulfinyl)-1H-indol-6-yl)((R)-2-methylmorpholino)methanone] reads 106%; that for `C[C@H]1CN(C(=O)c2ccc3c([S+](C)[O-])cn(-c4ncc(-c5ccccc5F)cn4)c3c2)CCO1` (stereo partly drawn) [Example 85, (1-(5-(2-Fluorophenyl)pyrimidin-2-yl)-3-(methylsulfinyl)-1H-indol-6-yl)((S)-2-methylmorpholino)methanone], 115%; that for `C[S+]([O-])c1cn(-c2ncc(-c3ccc(O)cc3)cn2)c2cc(C(=O)N3CCOCC3)ccc12` (stereo not shown) [Example 86, (1-(5-(4-Hydroxyphenyl)pyrimidin-2-yl)-3-(methylsulfinyl)-1H-indol-6-yl)(morpholino)methanone], 99%.
Still for that read-out and setting: under `Cc1cccc(-c2cnc(-n3cc(S(C)(=O)=O)c4ccc(C(=O)N5CCOCC5)cc43)nc2)c1` [Example 156, (3-(Methylsulfonyl)-1-(5-(m-tolyl)pyrimidin-2-yl)-1H-indol-6-yl)(morpholino) methanone] stands 58%; under `COc1cccc(-c2cnc(-n3cc(S(C)(=O)=O)c4ccc(C(=O)N5CCOCC5)cc43)nc2)c1` [Example 159, (1-(5-(3-Methoxyphenyl)pyrimidin-2-yl)-3-(methylsulfonyl)-1H-indol-6-yl)(morpholino)methanone], 98%; under `COc1ccc(F)c(-c2cnc(-n3cc(S(C)(=O)=O)c4ccc(C(=O)N5CCOCC5)cc43)nc2)c1` [Example 162, (1-(5-(2-Fluoro-5-methoxyphenyl)pyrimidin-2-yl)-3-(methylsulfonyl)-1H-indol-6-yl)(morpholino)methanone], 95%.
On to `Cc1cccc(-c2cnc(-n3cc(S(C)(=O)=O)c4ccc(C(=O)N5CC[C@@H](N)C5)cc43)nc2)c1` [Example 167, (R)-(3-Aminopyrrolidin-1-yl)(3-(methylsulfonyl)-1-(5-(m-tolyl)pyrimidin-2-yl)-1H-indol-6-yl)methanone], for which the inhibition at 1 µM came out at 87%.
Same read-out and setting: the result for `CC(O)CN(C)C(=O)c1ccc2c([S+](C)[O-])cn(-c3ncc(-c4ccccc4F)cn3)c2c1` (stereo not shown) [Example 168, 1-(5-(2-Fluorophenyl)pyrimidin-2-yl)-N-(2-hydroxypropyl)-N-methyl-3-(methylsulfinyl)-1H-indole-6-carboxamide] reads 43%; that for `CN(C(=O)c1ccc2c([S+](C)[O-])cn(-c3ncc(-c4ccccc4F)cn3)c2c1)C1(CO)CC1` (stereo not shown) [Example 170, 1-(5-(2-Fluorophenyl)pyrimidin-2-yl)-N-(1-(hydroxymethyl)cyclopropyl)-N-methyl-3-(methylsulfinyl)-1H-indole-6-carboxamide], 54%; that for `CN(CC(C)(C)O)C(=O)c1ccc2c([S+](C)[O-])cn(-c3ncc(-c4ccccc4F)cn3)c2c1` (stereo not shown) [Example 171, 1-(5-(2-Fluorophenyl)pyrimidin-2-yl)-N-(2-hydroxy-2-methylpropyl)-N-methyl-3-(methylsulfinyl)-1H-indole-6-carboxamide], 38%.
As to `CN(CC(=O)O)C(=O)c1ccc2c([S+](C)[O-])cn(-c3ncc(-c4ccccc4F)cn3)c2c1` (stereo not shown) [Example 173, 2-(1-(5-(2-Fluorophenyl)pyrimidin-2-yl)-N-methyl-3-(methylsulfinyl)-1H-indole-6-carboxamido)acetic acid], the inhibition at 1 µM worked out at 70%.
As to `CN(CC(N)=O)C(=O)c1ccc2c([S+](C)[O-])cn(-c3ncc(-c4ccccc4F)cn3)c2c1` (stereo not shown) [Example 174, N-(2-Amino-2-oxoethyl)-1-(5-(2-fluorophenyl)pyrimidin-2-yl)-N-methyl-3-(methylsulfinyl)-1H-indole-6-carboxamide], the inhibition at 1 µM came to 105%.
With `C[S+]([O-])c1cn(-c2ncc(-c3ccccc3F)cn2)c2cc(C(=O)N3CC4CC3CN4)ccc12` (stereo not shown) [Example 175, 2,5-Diazabicyclo[2.2.1]heptan-2-yl(1-(5-(2-fluorophenyl)pyrimidin-2-yl)-3-(methylsulfinyl)-1H-indol-6-yl)methanone], the inhibition at 1 µM is 114%.
`COC(=O)CN(C)C(=O)c1ccc2c([S+](C)[O-])cn(-c3ncc(-c4ccccc4F)cn3)c2c1` (stereo not shown) [Example 177, Methyl 2-(1-(5-(2-fluorophenyl)pyrimidin-2-yl)-N-methyl-3-(methylsulfinyl)-1H-indole-6-carboxamido)acetate]: the inhibition at 1 µM was 39%.

The same experiment, now with this note: inhibition of PDE4B at a test concentration of 1 μM, 1 µM.
Take `COC1CCN(C(=O)c2ccc3c([S+](C)[O-])cn(-c4ncc(-c5ccccc5F)cn4)c3c2)CC1` (stereo not shown) [Example 72, (1-(5-(2-Fluorophenyl)pyrimidin-2-yl)-3-(methylsulfinyl)-1H-indol-6-yl)(4-methoxypiperidin-1-yl)methanone]: the Inhibition in % is listed as 33%.
`C[S+]([O-])c1cn(-c2ncc(-c3ccccc3F)cn2)c2cc(C(=O)N3CCOC(C)(C)C3)ccc12` (stereo not shown) [Example 74, (2,2-Dimethylmorpholino)(1-(5-(2-fluorophenyl)pyrimidin-2-yl)-3-(methylsulfinyl)-1H-indol-6-yl)methanone] gave an Inhibition in % of 63%.

Broadly, the inhibition is the change of the read-out against control, counted positive when it falls.
